For this experiment, the system named is MCF7 tumors. As to the kind of experiment: Paclitaxel treatment of single-cell-derived MCF7 tumors on collagen islands; apoptosis counted by Hoechst nuclear morphology. Type of experiment: cell-based. How it is done:
Hoechst staining was used to visualize cells in the tumor using fluorescence microscopy (FIG. 4). Specifically, cells were washed in PBS and fixed in 4% paraformaldehyde before staining with 1:1000 PBS diluted solution of 20 mM Hoechst 33342 (Thermo Fischer Scientific, Waltham, MA) for 10 minutes. After washing once with PBS, tumors were imaged with a ZEISS LSM 800 confocal microscope with an excitation laser of 401 nm wavelength and with 10× magnification lens (EC Plan-Neofluar® 10×/0.30 M27). Bright-field and fluorescence images were also obtained using NIKON ECLIPSE® 80i upright fluorescence microscope, which were used to analyze the morphology of the tumors with ImageJ. […]
For each tumor, dead and live nuclei at every alternate plane of the z-stack were manually counted using Fiji cell counting software. […]
Since each island comprises a relatively small amount of collagen (e.g. as opposed to an entire well of a 96-well plate), excess dye that inadvertently diffuses into the collagen can be washed easily to reduce any background fluorescence signal. Live and dead cells (the latter indicated by smaller or fragmented nuclei with intense staining due to DNA condensation) from individual planes of z-stack confocal images of each tumor were manually counted according to a procedure described by Crowley et al. (see, e.g., Crowley et al., Cold Spring Harb. Protoc. pdb.prot087205 2016). […]

Take `CC(=O)O[C@H]1C(=O)[C@@]2(C)[C@H]([C@H](OC(=O)c3ccccc3)[C@]3(O)C[C@H](OC(=O)[C@H](O)[C@@H](NC(=O)c4ccccc4)c4ccccc4)C(C)=C1C3(C)C)[C@]1(OC(C)=O)CO[C@@H]1C[C@@H]2O` [Paclitaxel]: the “average cell death (percentage of apoptotic cells)” value (13-day old MCF7 tumors, Paclitaxel 5 nM, 20 nM and 100 nM for 24 hours, Hoechst 33342 nuclear morphology) was “increased with drug concentration”. Moreover, under “each drug concentration (5, 20, 100 nM), 24 hours”, the “variation in the response of individual tumors” value was “significant variation in the response of individual tumors for each drug concentration”.

The values are drawn from patent publication US12331312B2, “Deterministic culturing of single cells” (Purdue Research Foundation, priority 2020, dated 2025).
